Reference: patent publication US20200347264A1, “COMPOSITIONS FOR CONTAINERS AND OTHER ARTICLES AND METHODS OF USING SAME” (SWIMC LLC, priority 2012, published 2020)

Tests used:
MCF-7, clone WS8, cells = experiment: MCF-7 cell proliferation assay of estrogenic activity; assay type: cell-based, human; settings: logarithmic (base 10) Relative Proliferative Effect vs 17-beta estradiol in the MCF-7 assay; values called expected or measured
From the text: The MCF-7 assay uses MCF-7, clone WS8, cells to measure whether and to what extent a substance induces cell proliferation via estrogen receptor (ER)-mediated pathways. The method is described in “Test Method Nomination: MCF-7 Cell Proliferation Assay of Estrogenic Activity” submitted for validation by CertiChem, Inc. to the National Toxicology Program Interagency Center for the Evaluation of Alternative Toxicological Methods (NICEATM) on Jan. 19, 2006 (available online at http://iccvam.niehs.nih.gov/methods/endocrine/endodocs/SubmDoc.pdf).
A brief summary of the method of the aforementioned MCF-7 assay is provided below. MCF-7, clone WS8, cells are maintained at 37° C. in RMPI (Roswell Park Memorial Institute medium) containing Phenol Red (e.g., GIBCO Catalog Number 11875119) and supplemented with the indicated additives for routine culture. An aliquot of cells maintained at 37° C. are grown for 2 days in phenol-free media containing 5% charcoal stripped fetal bovine serum in a 25 cm^2 tissue culture flask. Using a robotic dispenser such as an epMotion 5070 unit, MCF-7 cells are then seeded at 400 cells per well in 0.2 ml of hormone-free culture medium in Corning 96-well plates. The cells are adapted for 3 days in the hormone-free culture medium prior to adding the test chemical to be assayed for activity. The media containing the test chemical is replaced daily for 6 days. At the end of the 7-day exposure to the test chemical, the media is removed, the wells are washed once with 0.2 ml of HBSS (Hanks' Balanced Salt Solution), and then assayed to quantify amounts of DNA per well using a micro-plate modification of the Burton diphenylamine (DPA) assay, which is used to calculate the level of cell proliferation.
RPE is the ratio between the EC50 of the test chemical and the EC50 of the control substance 17-beta estradiol times 100, where EC50 is “effective concentration 50^0/” or half-maximum stimulation concentration for cell proliferation measured as total DNA in the MCF-7 assay.

human estrogen receptor = target: T1, human estrogen receptor (Homo sapiens, UniProt P03372); experiment: in vitro assay of estrogenic activity correlated to the MCF-7 assay; assay type: cell-based; settings: suitable in vitro assay correlated to MCF-7 assay; assay not named for hydroquinone
T1 sequence (P03372 1-595): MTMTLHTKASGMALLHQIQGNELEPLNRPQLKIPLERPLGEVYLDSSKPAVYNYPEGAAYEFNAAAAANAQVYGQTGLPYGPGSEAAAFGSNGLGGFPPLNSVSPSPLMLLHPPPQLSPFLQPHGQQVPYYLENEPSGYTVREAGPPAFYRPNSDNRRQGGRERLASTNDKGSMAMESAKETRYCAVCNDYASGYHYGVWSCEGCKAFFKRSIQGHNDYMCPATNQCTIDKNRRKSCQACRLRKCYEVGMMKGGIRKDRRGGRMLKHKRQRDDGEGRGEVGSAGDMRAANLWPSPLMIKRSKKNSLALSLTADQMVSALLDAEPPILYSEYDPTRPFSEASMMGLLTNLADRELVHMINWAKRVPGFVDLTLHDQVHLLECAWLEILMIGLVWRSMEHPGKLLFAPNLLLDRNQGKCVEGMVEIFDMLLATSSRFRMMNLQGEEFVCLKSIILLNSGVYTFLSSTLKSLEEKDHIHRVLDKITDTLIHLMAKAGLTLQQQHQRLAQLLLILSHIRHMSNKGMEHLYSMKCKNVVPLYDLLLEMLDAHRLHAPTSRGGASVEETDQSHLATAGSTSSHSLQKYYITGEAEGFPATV

Structure (SMILES) | Log RPE (MCF-7, clone WS8, cells) | estrogenic activity (human estrogen receptor)
CC(C(=O)O)(c1ccc(O)cc1)c1ccc(O)cc1 | less than −4 | 
Oc1ccc(O)cc1 [hydroquinone] |  | appreciably non-estrogenic
O=S(=O)(c1ccc(O)cc1)c1ccc(O)cc1 [Bisphenol S] | −2 | 
C[C@]12CC[C@@H]3c4ccc(O)cc4CC[C@H]3[C@@H]1CC[C@@H]2O [17β-estradiol] | 2.00 | 
CC(C)(C)c1cc(O)c(C(C)(C)C)cc1O | less than −4 | does not exhibit appreciable estrogenic activity
CC(C)(c1cc(Br)c(O)c(Br)c1)c1cc(Br)c(O)c(Br)c1 | −3 | 
